Data set [1] in a line: Solubility of latanoprost in F4H5/ethanol by HPLC. Conditions: F4H5/ethanol mixture (99:1 by weight), organic solvent or mixture, thermodynamic from solid; in mixture of F4H5 and ethanol (ratio 99:1 by weight). The format is physicochemical. As for the experimental part: In a separate experiment, the solubility of latanoprost in a mixture of F4H5 and ethanol (ratio 99:1 by weight) was determined by HPLC according to Ph.Eur.2.2.29 after rotation evaporation of the solvent methyl acetate in vacuo, addition of the solvent under examination of the residue and determination of the dissolved amount.

For data set [2] the following is noted: descriptive term; cited from earlier work.

The structures appear in SMILES notation.

A word on the solubility: it is how much of the substance goes into solution per volume. Turning to `CC(C)OC(=O)CCC/C=C\C[C@@H]1[C@@H](CC[C@@H](O)CCc2ccccc2)[C@H](O)C[C@@H]1O` [latanoprost, isopropyl-(Z)-7[(1R,2R,3R,5S)3,5-dihydroxy-2-[(3R)-3-hydroxy-5-phenylpentyl]cyclopentyl]-5-heptenoate], the solubility in data set [1] was determined as 57 µg/mL. The solubility in water result in data set [2] was “practically insoluble”.

The values above are taken from patent US11324757B2, “Pharmaceutical composition for treatment of increased intraocular pressure” (NOVALIQ GMBH, priority 2010, dated 2022).
